Reference: article PMC8286840, “Identifying SARS-CoV-2 antiviral compounds by screening for small molecule inhibitors of Nsp3 papain-like protease” (Biochemical Journal, 2021)
Structures can show the parent of a compound that is named as a salt. Where two headings read alike, the source gives them in different places.

What was measured:
[1] = target: T1, SARS-CoV-2 PLpro (nsp3 1564–1878) (Severe acute respiratory syndrome coronavirus 2, UniProt P0DTD1); experiment: biochemical; design: FRET-quenched peptide (Pro3) cleavage by PLpro, 10 min pre-incubation, slope over 20 min, normalised to no-compound control; conditions: high concentration screen, read-out: % of control remaining
Description: The plates were organized with columns 3–22 containing the compounds; the remaining columns were used for reaction controls including substrate only and substrate with enzyme but no compound (Figure 3Aii). The PLpro enzyme was pre-incubated with the compounds for 10 min, and then the reaction was initiated by the addition of substrate. […] We incubated the inhibitors with PLpro before the enzymatic reaction so that the slow-binding inhibitors will not be missed out [21]. […] Fluorescence was read on a Spark multimode microplate reader (Tecan) with an excitation wavelength at 330 nm and emission wavelength at 420 nm. […] An amount of 5 µl of the enzyme was pre-incubated with compounds for 10 min before the addition of 15 µl substrate. Fluorescence was monitored at 2 min for 20 min with 3 min intervals giving a total of seven readings.

[2] = target: T1, SARS-CoV-2 PLpro (nsp3 1564–1878); experiment: biochemical; design: FRET-quenched peptide (Pro3) cleavage by PLpro, 10 min pre-incubation, slope over 20 min, normalised to no-compound control; conditions: low concentration screen, read-out: % of control remaining

COc1nccc(-c2c(-c3ccc(F)cc3)ncn2[C@H]2CC[C@H](O)CC2)n1 [SB 239063 - trans-4-[4-(4-Fluorophenyl)-5-(2-methoxy-4-pyrimidinyl)-1H-imidazol-1-yl]cyclohexanol]
remaining activity at 3.75 µM ([1]; Well no.=2478): 98.4%
remaining activity at 1.25 µM ([2]; Well no.=2478): 98.8%

COc1nccc(-c2c(-c3ccc(F)cc3)ncn2[C@H]2CC[C@H](O)CC2)n1 [SB 239063]
remaining activity at 3.75 µM ([1]; Well no.=2667): 98%
remaining activity at 1.25 µM ([2]; Well no.=2667): 93%

Cc1cc2c(cc1Cl)N(C(=O)Nc1ccc(Oc3cccnc3C)nc1)CC2 [SB 242084 dihydrochloride]
remaining activity at 3.75 µM ([1]; Well no.=1222): 102%
remaining activity at 1.25 µM ([2]; Well no.=1222): 102%

CC1CCN(CC[C@H]2CCCN2S(=O)(=O)c2cccc(O)c2)CC1 [SB 269970 hydrochloride]
remaining activity at 3.75 µM ([1]; Well no.=1220): 104%
remaining activity at 1.25 µM ([2]; Well no.=1220): 102%

COc1ccc(NS(=O)(=O)c2sc3ccc(Cl)cc3c2C)cc1N1CCNCC1 [SB 271046 (Hydrochloride)]
remaining activity at 3.75 µM ([1]; Well no.=7863): 101%
remaining activity at 1.25 µM ([2]; Well no.=7863): 102%

COc1ccc(NS(=O)(=O)c2sc3ccc(Cl)cc3c2C)cc1N1CCNCC1 [SB 271046]
remaining activity at 3.75 µM ([1]; Well no.=4934): 92.4%
remaining activity at 1.25 µM ([2]; Well no.=4934): 94.2%

CCOC(=O)[C@H](Cc1ccc([N+](=O)[O-])cc1)NC(=O)c1ccccc1 [SB 297006]
remaining activity at 3.75 µM ([1]; Well no.=5801): 98.4%
remaining activity at 1.25 µM ([2]; Well no.=5801): 98.7%

COC(=O)[C@H](Cc1ccc([N+](=O)[O-])cc1)NC(=O)c1cccc2ccccc12 [SB 328437]
remaining activity at 3.75 µM ([1]; Well no.=5812): 93.4%
remaining activity at 1.25 µM ([2]; Well no.=5812): 94.2%

NC(=O)c1ccc(-c2nc(-c3ccccn3)c(-c3ccc4c(c3)OCO4)[nH]2)cc1 [SB 431542 - 4-[4-(1,3-benzodioxol-5-yl)-5-(2-pyridinyl)-1H-imidazol-2-yl]benzamide]
remaining activity at 3.75 µM ([1]; Well no.=2440): 107%
remaining activity at 1.25 µM ([2]; Well no.=2440): 106%

Cc1cccc(-c2[nH]c(C(C)(C)C)nc2-c2ccc3nccnc3c2)n1 [SB 525334]
remaining activity at 3.75 µM ([1]; Well no.=4901): 99.1%
remaining activity at 1.25 µM ([2]; Well no.=4901): 99.5%

Cc1ccc(C(=O)N(CCCN)[C@@H](c2oc3cc(Cl)ccc3c(=O)c2Cc2ccccc2)C(C)C)cc1 [SB 743921]
remaining activity at 3.75 µM ([1]; Well no.=4812): 100%
remaining activity at 1.25 µM ([2]; Well no.=4812): 97.2%

O=S(=O)(CC1CS1)c1ccc(Oc2ccccc2)cc1 (centres unmarked) [SB-3CT]
remaining activity at 3.75 µM ([1]; Well no.=8478): 91.4%
remaining activity at 1.25 µM ([2]; Well no.=8478): 95.9%

Cn1cc(C2=C(c3ccc(Cl)cc3Cl)C(=O)NC2=O)c2ccccc21 [SB-216763]
remaining activity at 3.75 µM ([1]; Well no.=3035): 89.6%
remaining activity at 1.25 µM ([2]; Well no.=3035): 87.5%

CC[C@H](NC(=O)c1c(C)c(-c2ccccc2)nc2ccccc12)c1ccccc1 [SB-222200]
remaining activity at 3.75 µM ([1]; Well no.=7005): 86.5%
remaining activity at 1.25 µM ([2]; Well no.=7005): 96.1%

Cc1ccccc1N(C)C(=O)c1ccc([S+]([O-])c2nccs2)c([N+](=O)[O-])c1 (centres unmarked) [SB-268262]
remaining activity at 3.75 µM ([1]; Well no.=5777): 100%
remaining activity at 1.25 µM ([2]; Well no.=5777): 99.5%

CC1CCN(CC[C@H]2CCCN2S(=O)(=O)c2cccc(O)c2)CC1 [SB-269970 (hydrochloride)]
remaining activity at 3.75 µM ([1]; Well no.=8385): 101%
remaining activity at 1.25 µM ([2]; Well no.=8385): 108%

Cc1nc2ccc(NC(=O)Nc3ccnc4cccnc34)cc2o1 [SB-334867 (free base)]
remaining activity at 3.75 µM ([1]; Well no.=6999): 104%
remaining activity at 1.25 µM ([2]; Well no.=6999): 101%

COc1cccc(NC(=O)/C=C/c2ccc(Cl)cc2)c1 [SB-366791]
remaining activity at 3.75 µM ([1]; Well no.=1260): 103%
remaining activity at 1.25 µM ([2]; Well no.=1260): 104%

Cc1cc(NC(=O)Nc2ccc(N(C)C)cc2)c2cc(F)cc(F)c2n1 [SB-408124 (Hydrochloride)]
remaining activity at 3.75 µM ([1]; Well no.=6939): 98.8%
remaining activity at 1.25 µM ([2]; Well no.=6939): 99.4%

Cc1cc(NC(=O)Nc2ccc(N(C)C)cc2)c2cc(F)cc(F)c2n1 [SB-408124]
remaining activity at 3.75 µM ([1]; Well no.=4955): 94.9%
remaining activity at 3.75 µM ([1]; Well no.=8481): 102%
remaining activity at 1.25 µM ([2]; Well no.=4955): 90.2%
remaining activity at 1.25 µM ([2]; Well no.=8481): 104%

Cc1cccc(-c2[nH]c(C(C)(C)C)nc2-c2ccc3c(c2)OCO3)n1 [SB-505124]
remaining activity at 3.75 µM ([1]; Well no.=4814): 95.6%
remaining activity at 1.25 µM ([2]; Well no.=4814): 101%

Cc1nc(C(=O)N2CCC[C@H]2Cc2nnc(-c3ccccc3)o2)c(-c2ccccc2F)s1 [SB-674042]
remaining activity at 3.75 µM ([1]; Well no.=7083): 98.9%
remaining activity at 1.25 µM ([2]; Well no.=7083): 102%

O=S(=O)(c1ccccc1)c1cnc2c(N3CCNCC3)cccc2c1 [SB-742457]
remaining activity at 3.75 µM ([1]; Well no.=4839): 104%
remaining activity at 3.75 µM ([1]; Well no.=7183): 91.3%
remaining activity at 1.25 µM ([2]; Well no.=4839): 98.1%
remaining activity at 1.25 µM ([2]; Well no.=7183): 94.6%

Cc1cc(/C(O)=C2\C(=O)C(=O)N(CCCN3CCOCC3)C2c2ccncc2)ccc1OCc1ccccc1 (centres unmarked) [SBC-115076]
remaining activity at 3.75 µM ([1]; Well no.=7844): 95.8%
remaining activity at 1.25 µM ([2]; Well no.=7844): 101%

CNC(=O)c1ccccc1Oc1nc(Nc2cc(OC)c(OC)c(OC)c2)ncc1Br [SBI-0206965]
remaining activity at 3.75 µM ([1]; Well no.=7028): 103%
remaining activity at 1.25 µM ([2]; Well no.=7028): 105%

O=C(c1ccccc1)c1ccc2nc(NC(=O)c3csc(C4CCN(c5ncnc6ccsc56)CC4)n3)[nH]c2c1 [SC75741]
remaining activity at 3.75 µM ([1]; Well no.=6922): 101%
remaining activity at 1.25 µM ([2]; Well no.=6922): 100%

CC(=O)NNC(=O)N1Cc2ccccc2Oc2ccc(Cl)cc21 [SC 19220]
remaining activity at 3.75 µM ([1]; Well no.=1408): 100%
remaining activity at 1.25 µM ([2]; Well no.=1408): 101%

NS(=O)(=O)c1ccc(-n2nc(C(F)(F)F)cc2-c2ccc(Cl)cc2)cc1 [SC-236]
remaining activity at 3.75 µM ([1]; Well no.=5773): 98%
remaining activity at 1.25 µM ([2]; Well no.=5773): 110%

Cc1nc(-c2ccccc2)c(-c2ccncc2)o1 [SC-68376]
remaining activity at 3.75 µM ([1]; Well no.=2650): 102%
remaining activity at 1.25 µM ([2]; Well no.=2650): 96.3%

CN1CCc2cc(Cl)c(O)cc2[C@@H](c2ccccc2)C1 [SCH 23390 (hydrochloride)]
remaining activity at 3.75 µM ([1]; Well no.=7813): 102%
remaining activity at 1.25 µM ([2]; Well no.=7813): 109%

Nc1nc2c(cnn2CCc2ccccc2)c2nc(-c3ccco3)nn12 [SCH 58261]
remaining activity at 3.75 µM ([1]; Well no.=7907): 99.3%
remaining activity at 3.75 µM ([1]; Well no.=8309): 97.1%
remaining activity at 1.25 µM ([2]; Well no.=7907): 95.3%
remaining activity at 1.25 µM ([2]; Well no.=8309): 98.9%

CC[C@@H](Nc1c(Nc2cccc(C(=O)N(C)C)c2O)c(=O)c1=O)c1ccc(C)o1 [SCH 527123]
remaining activity at 3.75 µM ([1]; Well no.=7087): 97.3%
remaining activity at 1.25 µM ([2]; Well no.=7087): 102%

CC[C@H]1CN(c2nc(N)c(C(N)=O)nc2Cl)CCN1C1CCN(Cc2ccc(Cl)cc2)CC1 [SCH 546738]
remaining activity at 3.75 µM ([1]; Well no.=8659): 106%
remaining activity at 1.25 µM ([2]; Well no.=8659): 103%

CN=c1nc(-c2ccccc2)n(-c2ccccc2)s1 [SCH-202676 hydrobromide]
remaining activity at 3.75 µM ([1]; Well no.=1314): 97.4%
remaining activity at 1.25 µM ([2]; Well no.=1314): 98.7%
